Residue numbers refer to the chain shown, from its start. Like-named read-outs stand apart in the source and are kept apart here. Values belong to the compound of their own block, whether it stands above or below them.
How the values were obtained:
[1] = molecular target: T1, rP2X2 K69C mutant receptor (Rattus norvegicus, UniProt P49653, K69C); assay: Two-electrode voltage clamp of Xenopus oocytes expressing K69C mutant rP2X2; format: cell-based; details: for restoration of ability to respond to ATP after test compound: test compound 1 mM, 1 minute, then 1,000 µM ATP; for amplitude of response to 100 µM zinc: K69C after AM546 then MTSEA, N = 6; for Response after challenge compound (nA) 100 µM Zn / Response after challenge compound (nA) 1,000 µM ATP / Response after challenge compound (nA) pH 6.5: test compound 50 µM, 5 minutes; for binding to and activation of K69C receptors: tested for responses to zinc, pH 6.5 and ATP, then challenge with AM546 or MTSEA
T1 construct: expressed in transfected cells; host or cells: Xenopus laevis oocytes (RNA injection)
T1 sequence (P49653 1-472 K69C): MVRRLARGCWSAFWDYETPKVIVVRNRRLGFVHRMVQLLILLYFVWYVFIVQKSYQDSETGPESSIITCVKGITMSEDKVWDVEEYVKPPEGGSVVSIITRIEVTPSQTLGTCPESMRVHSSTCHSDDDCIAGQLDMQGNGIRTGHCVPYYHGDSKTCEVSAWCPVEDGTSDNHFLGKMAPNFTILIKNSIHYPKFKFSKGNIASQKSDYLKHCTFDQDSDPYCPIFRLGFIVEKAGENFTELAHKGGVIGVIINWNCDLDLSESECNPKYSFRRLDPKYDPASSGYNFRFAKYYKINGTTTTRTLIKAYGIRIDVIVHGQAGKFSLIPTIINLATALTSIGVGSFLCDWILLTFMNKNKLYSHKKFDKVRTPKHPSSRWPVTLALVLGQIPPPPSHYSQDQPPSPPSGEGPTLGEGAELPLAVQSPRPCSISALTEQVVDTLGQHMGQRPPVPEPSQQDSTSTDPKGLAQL

[2] = molecular target: T2, wild type rP2X2 (Rattus norvegicus, UniProt P49653); assay: Two-electrode voltage clamp of Xenopus oocytes expressing wild type rP2X2; format: cell-based
T2 construct: expressed in transfected cells; host or cells: Xenopus laevis oocytes (RNA injection)
T2 sequence (P49653 1-472): T1 sequence (P49653 1-472 K69C) with C69K

[3] = molecular target: T3, rP2X2 K308C mutant receptor (Rattus norvegicus, UniProt P49653, K308C); assay: Two-electrode voltage clamp of Xenopus oocytes expressing K308C mutant rP2X2; format: cell-based; details: for restoration of ability to respond to ATP after test compound: test compound 1 mM, 15 minutes, then 1,000 µM ATP
T3 construct: expressed in transfected cells; host or cells: Xenopus laevis oocytes (RNA injection)
T3 sequence (P49653 1-472 K308C): T1 sequence (P49653 1-472 K69C) with C69K, K308C

[4] = molecular target: T4, rP2X2 K69C/H319K double mutant (Rattus norvegicus, UniProt P49653, H319K/K69C); assay: Two-electrode voltage clamp of Xenopus oocytes expressing K69C/H319K double mutant rP2X2; format: cell-based
T4 construct: expressed in transfected cells; host or cells: Xenopus laevis oocytes (RNA injection)
T4 sequence (P49653 1-472 K69C/H319K): T1 sequence (P49653 1-472 K69C) with H319K

[5] = molecular target: T2, wild type rP2X2; details: cited from earlier work
[6] = test system: uninjected oocytes; assay: Two-electrode voltage clamp of uninjected oocytes (control); format: cell-based, Xenopus laevis; details: N = 14
Protocol: This study was carried out in strict accordance with the recommendations in the Guide for the Care and Use of Laboratory Animals of the National Institutes of Health. The protocol was approved by the University Committee on the Use and Care of Animals of the University of Michigan (Protocol 08396-4). The rP2X2 receptors were expressed in defolliculated stage V-VI Xenopus laevis oocytes. Oocytes were harvested using procedures that have been described in detail previously.
RNAs encoding wild type and mutant rP2X2 receptors were synthesized using the mMessage mMachine T7 kit (Life Technologies, Grand Island, NY). Each oocyte was injected with 50 nl of RNA (10–20 ng/µl). Two-electrode voltage clamp experiments were performed 2–5 days after RNA injection. Except where indicated otherwise, recordings were made at a holding potential of −50 mV. Recording electrodes were pulled from thin walled borosilicate glass and had resistances of 0.2–1 MΩ. Currents were recorded with a Turbo TEC-03 or TEC-10 voltage clamp amplifier (npi electronic GmBH, Tamm, Germany). Data acquisition was performed using a Digidata 1322A interface controlled by pCLAMP 9 or 10 (Molecular Devices, Sunnyvale, CA).
To regulate the delivery of most test solutions into the recording chamber, we used a gravity fed valve array. […]

[7] = test system: P2X1 mutant homologous to K69A; details: ref [28]; cited from earlier work
[8] = AM546-treated K69C, no exogenous ATP

ATP response ([1]; AM546-modified K69C, 1,000 µM ATP, 'greater than' refers to magnitude): greater than −100 nA
EC50 ([1]; MTSEA-modified K69C): 924 ± 102 µM
Hill coefficient (ATP) ([1]; MTSEA-modified K69C): 1.4±0.1
inward current ([2]; 1,000 µM ATP, same RNA concentration as K69C, 'over' refers to magnitude): over −20 µA
EC50 ([2]; wild type rP2X2): 32 ± 1 µM
EC50 ([3]; MTSEA-modified K308C): 374 ± 35 µM
Hill coefficient (ATP) ([3]; MTSEA-modified K308C): 1.3±0.1
EC50 [4]: ~145 µM
Compound: Nc1ncnc2c1ncn2C1OC(COP(=O)(O)OP(=O)(O)OP(=O)(O)O)C(O)C1O (stereo not drawn) [ATP, Disodium ATP]
Hill Coefficient (typical value for wild type rP2X2) ([5]; typical value used to estimate basal ATP levels, ref not given): 1.5

Compound: CSS(C)(=O)=O [MMTS, Methyl Methanethiosulfonate]
restoration of ability to respond to ATP after test compound [1]: None of these compounds restored the ability
restoration of ability to respond to ATP after test compound [3]: None of these compounds restored the ability

Compound: C[N+](C)(C)CCSS(C)(=O)=O.[Cl-] [MTSET, [2-(Trimethylammonium)ethyl] Methanethiosulfonate Chloride]
restoration of ability to respond to ATP after test compound [1]: None of these compounds restored the ability
restoration of ability to respond to ATP after test compound [3]: None of these compounds restored the ability

Compound: Cc1ccc(C(=O)Nc2ccc(S(=O)(=O)O)c3cc(S(=O)(=O)O)cc(S(=O)(=O)O)c23)cc1NC(=O)c1cccc(NC(=O)Nc2cccc(C(=O)Nc3cc(C(=O)Nc4ccc(S(=O)(=O)O)c5cc(S(=O)(=O)O)cc(S(=O)(=O)O)c45)ccc3C)c2)c1 [suramin, Suramin]
Hill coefficient (suramin activation) [1, 8]: 1.1±0.1
maximal response to suramin (inward current) [1, 8]: −450±51 nA
response to suramin ([1]; K69C prior to AM546 treatment, no exogenous ATP): no response
EC50 ([1]; read-out: suramin EC50 (activation)): 52 ± 5 µM
average suramin response [6]: −1.3±1.9 nA
outward suramin currents due to inhibition of basal ATP ([2]; cells with maximal currents to saturating ATP of about −20 µA): 10–500 nA
Hill coefficient (suramin) ([2]; no exogenous ATP, N = 11): 1.2±0.1
IC50 ([2]; read-out: suramin IC50 (outward current response)): 8.3 ± 1.1 µM
IC50 for suramin [7]: normal

amplitude of response to 100 µM zinc ([1]; with 1,000 µM ATP): 2.74±0.47 µA
amplitude of response to 100 µM zinc ([1]; without ATP): 0.39±0.06 µA
current as % of the maximum after addition of zinc ([2]; 20 µM zinc, ATP giving 10% of maximum at pH 7.5): 80–90%
Izinc average current ([3]; untreated K308C, 100 µM zinc, N = 6): −5±4 nA
additional inward current in response to zinc ([4]; 50 µM zinc, after AM546, 'over' refers to magnitude): over −6 µA
current in response to zinc alone ([4]; 50 µM zinc, before AM546, no exogenous ATP, N = 12): −2.9±0.9 µA
Compound: [Cl-].[Cl-].[Zn+2] [zinc, Zinc chloride]
average response to a zinc jump ([6]; 50 µM zinc): +8.6±1.9 nA
enhancement of the current by a zinc jump ([5]; untreated wild type, EC10 ATP, pH 7.5, 20 µM zinc, ref [17], [20]): approximately 8 fold

Response after challenge compound (nA) 100 µM Zn ([1]; then challenge compound AM-546): −10±9 nA
Response after challenge compound (nA) 1,000 µM ATP ([1]; then challenge compound AM-546): −10±3 nA
Response after challenge compound (nA) pH 6.5 ([1]; then challenge compound AM-546): −16±5 nA
binding to and activation of K69C receptors [1]: could bind to, but not activate
Compound: Alexa Fluor 488 C5-maleimide [AM-488]

Response after challenge compound (nA) 100 µM Zn ([1]; then challenge compound MTSEA): −9±4 nA
Response after challenge compound (nA) 1,000 µM ATP ([1]; then challenge compound MTSEA): −41±9 nA
Response after challenge compound (nA) pH 6.5 ([1]; then challenge compound MTSEA): −25±0 nA
binding to and activation of K69C receptors [1]: could bind to, but not activate
Compound: Alexa Fluor 568 C5-maleimide [AM-568]

Response after challenge compound (nA) 100 µM Zn ([1]; then challenge compound MTSEA): −2±1 nA
Response after challenge compound (nA) 1,000 µM ATP ([1]; then challenge compound MTSEA): −26±7 nA
Response after challenge compound (nA) pH 6.5 ([1]; then challenge compound MTSEA): −7±5 nA
binding to and activation of K69C receptors [1]: could bind to, but not activate
Compound: Alexa Fluor 594 C5-maleimide [AM-594]
